Here are results for 25 compounds from patent publication US10047083B2, “Dihydropyrimidinoisoquinolinones and pharmaceutical compositions thereof for the treatment of inflammatory disorders” (GALAPAGOS NV, priority 2011, dated 2018).

T1 sequence (Q9NQS5 whole entry): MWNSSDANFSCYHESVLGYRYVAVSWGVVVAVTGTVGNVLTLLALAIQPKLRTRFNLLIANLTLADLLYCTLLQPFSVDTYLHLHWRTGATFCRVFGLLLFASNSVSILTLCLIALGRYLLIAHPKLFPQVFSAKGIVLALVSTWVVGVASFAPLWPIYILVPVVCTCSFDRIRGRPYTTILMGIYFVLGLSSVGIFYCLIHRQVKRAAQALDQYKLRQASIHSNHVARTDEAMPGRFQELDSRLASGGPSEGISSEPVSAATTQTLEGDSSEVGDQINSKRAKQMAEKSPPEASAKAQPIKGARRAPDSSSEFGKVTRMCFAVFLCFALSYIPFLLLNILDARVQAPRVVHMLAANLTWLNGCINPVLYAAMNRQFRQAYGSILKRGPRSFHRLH

This test has as its target T1, GPR84 (Homo sapiens, UniProt Q9NQS5).
T1 construct: expressed in transfected cells; membranes used
The test can be described thus: GTPγS binding assay (GPR84). Type of test: biochemical. Conditions: membranes from stable cell line over expressing GPR84; 3,3′ di indolylmethane at EC80. As for the experimental part: 1.1. Cell Based Assay: GTp-γS Binding Assay.
The following assay can be used for determination of GPR84 activation.
The assay is performed in a 96 well plate where the following reagents are added. […] In a last step, 30 μL of a mixture consisting of membranes-GTPγS-SpA beads is added [mixture consists of 20 μg/well membranes derived from stable cell line over expressing GPR84 (membranes are pre-incubated with 0.1 μM GDP for 15 min at 4° C.), 0.1 nM [^35S]GTPγS (Perkin Elmer, NEG030) and 0.5 mg/well PVT-WGA SpA beads (Perkin Elmer, RPNQ0001)]. All components are diluted in assay buffer containing 20 mM HEPES pH 7.4; 5 mM MgCl2; 250 mM NaCl; 0.05% BSA; 75 ug/mL saponin. Reactions are incubated for 90 min at room temperature followed by centrifugation at 2000 rpm during 15 min. Plates are read on a Topcount reader (Perkin Elmer) immediately after centrifugation (readout time, 1 min/well).
Background: GTPγS resists hydrolysis and so accumulates on activated G proteins.
The compound `C=CCOc1ccc2c(c1)CCn1c-2cc(OCC2COCCO2)nc1=O` (stereo not shown) [Compound 1, 9-allyloxy-2-(-1-[1,4]dioxan-2-ylmethoxy)-6,7-dihydro-pyrimido[6,1-a]isoquinolin-4-one] showed a half-inhibitory concentration (IC50) of 101 to 500 nM.

As for `O=c1nc(OC[C@@H]2COCCO2)cc2n1CCc1cc(OCC3COC3)ccc1-2` [Compound 163, 2-((S)-1-[1,4]dioxan-2-ylmethoxy)-9-(oxetan-3-ylmethoxy)-6,7-dihydro-pyrimido[6,1-a]isoquinolin-4-one], the IC50 was in the range of 0.01 to 100 nM. Under `COC(C#Cc1ccc2c(c1)CCn1c-2cc(OCC2COCCO2)nc1=O)C(C)C` (stereo not shown) [Compound 110, 2-([1,4]dioxan-2-ylmethoxy)-9-(3-methoxy-4-methyl-pent-1-ynyl)-6,7-dihydro-pyrimido[6,1-a]isoquinolin-4-one] stands 101 to 500 nM; under `CC(C)(C)C(O)CCc1ccc2c(c1)CCn1c-2cc(OC[C@@H]2COCCO2)nc1=O` (stereo partly drawn) [Compound 146, 2-((S)-1-[1,4]dioxan-2-ylmethoxy)-9-(3-hydroxy-4,4-dimethyl-pentyl)-6,7-dihydro-pyrimido[6,1-a]isoquinolin-4-one], 0.01 to 100 nM. In the case of `COc1cccc(-c2ccc3c(c2)CCn2c-3cc(OCC3COCCO3)nc2=O)c1` (stereo not shown) [Compound 43, 2-([1,4]dioxan-2-ylmethoxy)-9-(3-methoxy-phenyl)-6,7-dihydro-pyrimido[6,1-a]isoquinolin-4-one] it was 101 to 500 nM; in that of `O=c1nc(OC[C@@H]2COCCO2)cc2n1CCc1cc(COCC3CC3)ccc1-2` [Compound 138, 9-cyclopropylmethoxymethyl-2-((S)-1-[1,4]dioxan-2-ylmethoxy)-6,7-dihydro-pyrimido[6,1-a]isoquinolin-4-one], 0.01 to 100 nM; in that of `CCn1cc(-c2ccc3c(c2)CCn2c-3cc(OCC3COCCO3)nc2=O)cn1` (stereo not shown) [Compound 95, 2-([1,4]dioxan-2-ylmethoxy)-9-(1-ethyl-1H-pyrazol-4-yl)-6,7-dihydro-pyrimido[6,1-a]isoquinolin-4-one], 501 to 1000 nM. In the case of `NC(=O)c1cc(-c2ccc3c(c2)CCn2c-3cc(OCC3COCCO3)nc2=O)ccc1F` (stereo not shown) [Compound 28, 5-[2-([1,4]dioxan-2-ylmethoxy)-4-oxo-6,7-dihydro-4H-pyrimido[6,1-a]isoquinolin-9-yl]-2-fluoro-benzamide] it was 501 to 1000 nM; in that of `O=c1nc(OC[C@@H]2COCCO2)cc2n1CCc1cc(C#CCOCCF)ccc1-2` [Compound 135, 2-((S)-1-[1,4]dioxan-2-ylmethoxy)-9-[3-(2-fluoro-ethoxy)-prop-1-ynyl]-6,7-dihydro-pyrimido[6,1-a]isoquinolin-4-one], 101 to 500 nM.

The compound `CCOCCOCC#Cc1ccc2c(c1)CCn1c-2cc(OC[C@@H]2COCCO2)nc1=O` [Compound 134, 2-((S)-1-[1,4]dioxan-2-ylmethoxy)-9-[3-(2-ethoxy-ethoxy)-prop-1-ynyl]-6,7-dihydro-pyrimido[6,1-a]isoquinolin-4-one] displayed an IC50 of 101 to 500 nM. Under `O=c1nc(OC[C@@H]2COCCO2)cc2n1CCc1cc(NCC3CCOCC3)ccc1-2` [Compound 154, 2-((S)-1-[1,4]dioxan-2-ylmethoxy)-9-[(tetrahydro-pyran-4-ylmethyl)-amino]-6,7-dihydro-pyrimido[6,1-a]isoquinolin-4-one] stands 501 to 1000 nM. `CCC(O)CCc1ccc2c(c1)CCn1c-2cc(OC[C@@H]2COCCO2)nc1=O` (stereo partly drawn) [Compound 157, 2-((S)-1-[1,4]dioxan-2-ylmethoxy)-9-(3-hydroxy-pentyl)-6,7-dihydro-pyrimido[6,1-a]isoquinolin-4-one] gave a concentration for half-maximal inhibition (IC50) of 101 to 500 nM. Under `Cc1ccc(-c2ccc3c(c2)CCn2c-3cc(OCC3COCCO3)nc2=O)o1` (stereo not shown) [Compound 97, 2-([1,4]dioxan-2-ylmethoxy)-9-(5-methyl-furan-2-yl)-6,7-dihydro-pyrimido[6,1-a]isoquinolin-4-one] stands 101 to 500 nM; under `O=c1nc(OCC2COCCO2)cc2n1CCc1cc(-c3ccncc3)ccc1-2` (stereo not shown) [Compound 3, 2-([1,4]dioxan-2-ylmethoxy)-9-pyridin-4-yl-6,7-dihydro-pyrimido[6,1-a]isoquinolin-4-one], 501 to 1000 nM; under `O=c1nc(OCC2COCCO2)cc2n1CCc1cc(C#CCNCc3cccnc3)ccc1-2` (stereo not shown) [Compound 120, 2-([1,4]dioxan-2-ylmethoxy)-9-{3-[(pyridin-3-ylmethyl)-amino]-prop-1-ynyl}-6,7-dihydro-pyrimido[6,1-a]isoquinolin-4-one], 101 to 500 nM. Under `CC(O)C#Cc1ccc2c(c1)CCn1c-2cc(OCC2COCCO2)nc1=O` (stereo not shown) [Compound 87, 2-([1,4]dioxan-2-ylmethoxy)-9-(3-hydroxy-but-1-ynyl)-6,7-dihydro-pyrimido[6,1-a]isoquinolin-4-one] stands 101 to 500 nM. Under `CC(C)(C)c1cnc(COc2ccc3c(c2)CCn2c-3cc(OCC3COCCO3)nc2=O)o1` (stereo not shown) [Compound 76, 9-(5-tert-butyl-oxazol-2-ylmethoxy)-2-([1,4]dioxan-2-ylmethoxy)-6,7-dihydro-pyrimido[6,1-a]isoquinolin-4-one] stands 0.01 to 100 nM; under `CCCOCCOc1ccc2c(c1)CCn1c-2cc(OC[C@H]2COCCO2)nc1=O` [Compound 172, 2-((R)-1-[1,4]Dioxan-2-ylmethoxy)-9-(2-propoxy-ethoxy)-6,7-dihydro-pyrimido[6,1-a]isoquinolin-4-one], 101 to 500 nM. Regarding `CC(C)OCCOc1ccc2c(c1)CCn1c-2cc(OC[C@H]2COCCO2)nc1=O` [Compound 173, 2-((R)-1-[1,4]Dioxan-2-ylmethoxy)-9-(2-isopropoxy-ethoxy)-6,7-dihydro-pyrimido[6,1-a]isoquinolin-4-one], the IC50 was 501 to 1000 nM. Take `COCCCc1ccc2c(c1)CCn1c-2cc(OC[C@@H]2COCCO2)nc1=O` [Compound 165, 2-((S)-1-[1,4]dioxan-2-ylmethoxy)-9-(3-methoxy-propyl)-6,7-dihydro-pyrimido[6,1-a]isoquinolin-4-one]: the concentration for half-maximal inhibition (IC50) lay within 0.01 to 100 nM. Consider `CCCCC(CC)CNc1ccc2c(c1)CCn1c-2cc(OC[C@@H]2COCCO2)nc1=O` (stereo partly drawn) [Compound 128, 2-((S)-1-[1,4]dioxan-2-ylmethoxy)-9-(2-ethyl-hexylamino)-6,7-dihydro-pyrimido[6,1-a]isoquinolin-4-one], for which the 50% inhibitory concentration (IC50) lay in the range of 101 to 500 nM.

As for `N#Cc1ccc(-c2ccc3c(c2)CCn2c-3cc(OCC3COCCO3)nc2=O)cc1` (stereo not shown) [Compound 6, 4-[2-([1,4]dioxan-2-ylmethoxy)-4-oxo-6,7-dihydro-4H-pyrimido[6,1-a]isoquinolin-9-yl]-benzonitrile], the IC50 lay in the range of 101 to 500 nM. Consider `O=c1nc(OC[C@@H]2COCCO2)cc2n1CCc1cc(NCC3CCCCC3)ccc1-2` [Compound 153, 9-(cyclohexylmethyl-amino)-2-((S)-1-[1,4]dioxan-2-ylmethoxy)-6,7-dihydro-pyrimido[6,1-a]isoquinolin-4-one], for which the IC50 fell in the range of 101 to 500 nM.

`COc1nccc(-c2ccc3c(c2)CCn2c-3cc(OCC3COCCO3)nc2=O)c1Cl` (stereo not shown) [Compound 64, 9-(3-chloro-2-methoxy-pyridin-4-yl)-2-([1,4]dioxan-2-ylmethoxy)-6,7-dihydro-pyrimido[6,1-a]isoquinolin-4-one]: the half-maximal inhibitory concentration (IC50) lay within 101 to 500 nM.

Consider `COC(C)CCc1ccc2c(c1)CCn1c-2cc(OC[C@@H]2COCCO2)nc1=O` (stereo partly drawn) [Compound 148, 2-((S)-1-[1,4]dioxan-2-ylmethoxy)-9-(3-methoxy-butyl)-6,7-dihydro-pyrimido[6,1-a]isoquinolin-4-one], for which the 50% inhibitory concentration (IC50) fell in the range of 0.01 to 100 nM.

A word on the IC50: it is the concentration that gives 50% inhibition. High values mean weaker potency in that assay, low ones greater potency in that assay.
